Measured values from patent US9364480B2, “Pharmaceutical composition for preventing or treating cancer, containing enoblock as active ingredient” (GWANGJU INSTITUTE OF SCIENCE AND TECHNOLOGY, priority 2012, dated 2016).
Entries after “also recorded” stand apart in the source; their conditions may differ.

Experiments:
HCT116 cancer cells = experiment: Cancer cell invasion (transwell inserts, crystal violet); assay type: cell-based; conditions: HCT116, normoxia
Procedure: FIG. 7. […] (b) Microscopic images of crystal violet stained HCT116 cells invaded onto the transwell inserts (scale bar=100 μm). […] (d) Microscopic images of crystal violet stained HCT116 cells migrated onto the transwell inserts (scale bar=100 μm). […] Cells were treated with 10 nM taxol and 10 nM vincristine, with or without 10 μM ENOblock. Error=SD; *=P<0.05 between the groups indicated on the graph. […] For the AKT Western blot, cells were treated with ENOblock for 24 h; for the Bcl-Xl Western blot, cells were treated with ENOblock for 48 h.

zebrafish larvae = experiment: Toxicological analysis using the zebrafish larvae system; assay type: in vivo, zebrafish (Danio rerio); conditions: for microscopic assessment of larvae morphology: 72 days post fertilization (dfp) zebrafish larvae
Procedure: FIG. 9. Toxicological study of ENOblock and in vivo analysis of anticancer activity. (A) Toxicological analysis of ENOblock treatment using the zebrafish larvae system. […] (B) Microscopic assessment of […] post fertilization (dfp) zebrafish larvae exposed to increasing doses of ENOblock. […] Error=SD; *=P<0.05 compared to the DMSO treated group. P value: 20 μM ENOblock=0.0121; 40 μM ENOblock=0.0019. […] DMSO treatment served as a control. Three representative embryos are shown from each experimental group, and distributed cancer cell foci are designated with blue arrows. […] Error=SD; *=P<0.05 compared to the DMSO-treated group.
The zebrafish (Danio rerio) cancer cell xenograft model is gaining increasing research prominence as a validated, convenient tool for testing candidate cancer drugs in vivo.^10,11 In addition, zebrafish is a relevant vertebrate platform for predicting toxicological effects in mammals.^12 We observed that 10 μM ENOblock treatment of developing zebrafish larvae was nontoxic (FIG. 9a-9c).

[1] = test system: glucose 6-phosphatase (G6 Pase) expression in hepatocytes; experiment: G6 Pase expression in hepatocytes; assay type: cell-based; conditions: 10 μM, 24 h
Excerpt: (§1) FIG. 10. […] Error=SD; *=P<0.05 compared to the no drug (DMSO-treated) group. […] Error=SD; *=P<0.05 for reduced PEPCK expression compared to the no drug (DMSO-treated) group.

[2] = test system: 5′ AMP-activated protein kinase (AMPK) expression in hepatocytes; experiment: AMPK expression in hepatocytes; assay type: cell-based; conditions: 10 μM, 24 h
Excerpt: as §1

For `NCCOCCOCCNC(=O)Cc1ccc(Nc2nc(NCc3ccc(F)cc3)nc(NCC3CCCCC3)n2)cc1` [ENOblock], the cancer cell invasion (HCT116 cancer cells; 0.625-2.5 μM) was “inhibited invasion dose-dependently”, the “treatment concentration at which cancer cell invasion is significantly inhibited” value (HCT116 cancer cells; P value=0.0481) was 0.625 µM and the “overall zebrafish larvae viability” value (zebrafish larvae; 10 μM) was “did not affect viability”. The “overall zebrafish larvae viability” value (zebrafish larvae; 20 μM) was “reduced overall zebrafish larvae viability”, the “overall zebrafish larvae viability” value (zebrafish larvae; 40 μM) was “reduced overall zebrafish larvae viability” and the “microscopic assessment of larvae morphology” value (zebrafish larvae; 20 μM) was “produced an abnormally large swim bladder”. For the same compound, the “microscopic assessment of larvae morphology” value (zebrafish larvae; 40 μM) was “produced multiple abnormalities in the larvae”, the “toxicity / tolerability (developmental parameters)” value (zebrafish larvae; zebrafish larvae, 10 μM) was “could be tolerated by the larvae; also recorded: nontoxic” and the ability to swim (zebrafish larvae; zebrafish larvae, 20 μM) was “inhibited the ability to swim”. For the same compound, the “glucose 6-phosphatase (G6 Pase) expression” value [1] was “did not affect expression of the enzymes” and the AMPK expression [2] was “did not affect expression of the enzymes”.
